Calls of active or inactive are those of the source. The rule behind the calls is not given here.
Experiments:
Acetylcholinesterase [1] = target: T1, Acetylcholinesterase (Homo sapiens, UniProt P22303)
Description: Inhibition of human recombinant AChE using acetylthiocholine as substrate preincubated for 5 mins followed by substrate addition measured every 2 mins by Ellman's method

Cholinesterase = Cholinesterase (Homo sapiens, UniProt P06276)
Description: Inhibition of human plasmatic BChE using butyrylthiocholine as substrate preincubated for 5 mins followed by substrate addition measured every 2 mins by Ellman's method

HepG2 [2] = assay: Hepatotoxicity in human HepG2 cells assessed as cell viability at 512 uM after 24 hrs by MTT assay; assay type: toxicity, cell-based; conditions: hepg2, 24 h
Liver microsome [3] = assay: Retention time of the compound in human liver microsomes by LC-MS/MS analysis; assay type: ADME
in vitro = conditions: human, HepG2 cells
Description: Hepatotoxicity in human HepG2 cells assessed as cell viability after 24 hrs by MTT assay

Acetylcholinesterase [4] = target: T1, Acetylcholinesterase; assay: Competitive inhibition of human recombinant AChE using acetylthiocholine as substrate preincubated for 5 mins followed by substrate addition measured every 2 mins by Lineweaver-Burk plot analysis
[5] = Metabolic stability in human liver microsomes assessed as compound remaining at 1 ug/ml after 1 hr by LC-MS/MS analysis; assay type: ADME; conditions: read-out: Stability
Acetylcholinesterase [6] = target: T1, Acetylcholinesterase; conditions: 100 to 562 nM
[7] = Metabolic stability in human liver microsomes assessed as compound remaining at 20 ug/ml after 1 hr by LC-MS/MS analysis; assay type: ADME; conditions: read-out: Stability
[8] = Permeability of the compound at 50 to 100 uM after 18 hrs by PAMPA; assay type: physicochemical; conditions: read-out: permeability
[9] = Metabolic stability in human liver microsomes assessed as compound remaining at 50 ug/ml after 1 hr by LC-MS/MS analysis; assay type: ADME; conditions: read-out: Stability
Liver microsome [10] = assay: Drug metabolism in human liver microsomes assessed as decrease in 8-(6-chloro-1,2,3,4-tetrahydroacridin-9-ylamino)octanoic acid AUC after 1 hr by extracted ion chromatogram analysis; assay type: ADME
HepG2 [11] = assay: Hepatotoxicity in human HepG2 cells assessed as cell viability at 0.5 uM after 24 hrs by MTT assay; assay type: toxicity, cell-based; conditions: hepg2, 24 h
[12] = Acute toxicity in im dosed albino Wistar rat assessed as mortality measured within 48 hrs; assay type: organism-based; conditions: in vivo
HepG2 [13] = assay: Hepatotoxicity in human HepG2 cells assessed as cell viability at 2 uM after 24 hrs by MTT assay; assay type: toxicity, cell-based; conditions: hepg2, 24 h

T1 sequence (P22303 whole entry): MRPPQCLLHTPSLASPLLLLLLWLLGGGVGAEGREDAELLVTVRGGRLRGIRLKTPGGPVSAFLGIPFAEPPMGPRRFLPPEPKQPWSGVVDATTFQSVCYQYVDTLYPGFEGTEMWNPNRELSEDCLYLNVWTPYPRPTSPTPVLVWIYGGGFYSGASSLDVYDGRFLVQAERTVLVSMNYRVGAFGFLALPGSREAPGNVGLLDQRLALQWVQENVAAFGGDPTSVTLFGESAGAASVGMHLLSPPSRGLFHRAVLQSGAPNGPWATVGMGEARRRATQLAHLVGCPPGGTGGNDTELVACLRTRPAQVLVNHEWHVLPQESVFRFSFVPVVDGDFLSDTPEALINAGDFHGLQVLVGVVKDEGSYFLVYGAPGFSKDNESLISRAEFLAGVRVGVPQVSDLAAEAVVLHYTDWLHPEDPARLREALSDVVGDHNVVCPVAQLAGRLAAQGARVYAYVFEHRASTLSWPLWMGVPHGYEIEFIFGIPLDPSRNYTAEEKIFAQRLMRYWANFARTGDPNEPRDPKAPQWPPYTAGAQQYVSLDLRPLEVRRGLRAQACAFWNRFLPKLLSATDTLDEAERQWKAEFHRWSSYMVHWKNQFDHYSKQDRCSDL
Sequence of Cholinesterase (P06276 whole entry): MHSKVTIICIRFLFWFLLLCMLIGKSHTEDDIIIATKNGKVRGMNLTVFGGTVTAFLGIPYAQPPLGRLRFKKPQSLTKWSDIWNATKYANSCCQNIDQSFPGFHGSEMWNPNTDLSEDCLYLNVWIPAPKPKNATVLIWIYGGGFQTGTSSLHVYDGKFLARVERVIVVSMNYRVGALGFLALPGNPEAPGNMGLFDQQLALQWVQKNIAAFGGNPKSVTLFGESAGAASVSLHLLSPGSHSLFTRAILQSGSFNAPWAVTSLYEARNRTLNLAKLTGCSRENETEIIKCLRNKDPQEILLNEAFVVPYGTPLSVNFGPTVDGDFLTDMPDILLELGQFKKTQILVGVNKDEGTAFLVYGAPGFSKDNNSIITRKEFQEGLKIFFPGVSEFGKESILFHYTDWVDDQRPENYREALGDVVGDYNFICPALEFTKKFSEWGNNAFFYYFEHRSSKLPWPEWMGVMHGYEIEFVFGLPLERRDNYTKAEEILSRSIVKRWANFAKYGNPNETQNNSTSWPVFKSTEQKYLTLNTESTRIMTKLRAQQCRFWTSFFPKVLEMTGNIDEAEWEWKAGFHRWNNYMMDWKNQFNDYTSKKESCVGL

## Cc1c(C)c2c(c(C)c1O)CCC(C)(C(=O)NCCNc1c3c(nc4cc(Cl)ccc14)CCCC3)O2 (stereo not given)
Acetylcholinesterase [1]
  IC50: 0.21 µM
Cholinesterase
  IC50: 0.02 µM
other
  EC50: 67.8 µM

## COc1ccc2nc3c(c(NCCCCCNC(=O)C4(C)CCc5c(C)c(O)c(C)c(C)c5O4)c2c1)CCCC3 (stereo not given)
Acetylcholinesterase [1]
  IC50: 13.3 µM
Cholinesterase
  IC50: 0.4 µM
other
  EC50: 62.7 µM

## Cc1c(C)c2c(c(C)c1O)CCC(C)(C(=O)NCCCCNc1c3c(nc4ccccc14)CCCC3)O2 (stereo not given)
Acetylcholinesterase [1]
  IC50: 0.95 µM
Cholinesterase
  IC50: 0.08 µM
other
  EC50: > 100 µM

## Cc1c(C)c2c(c(C)c1O)CCC(C)(C(=O)NCCCCCCCCNc1c3c(nc4ccccc14)CCCC3)O2 (stereo not given)
Acetylcholinesterase [1]
  IC50: 0.69 µM
Cholinesterase
  IC50: 0.16 µM
other
  EC50: 66.5 µM

## Cc1c(C)c2c(c(C)c1O)CCC(C)(C(=O)NCCCCNc1c3c(nc4cc(Cl)ccc14)CCCC3)O2 (stereo not given)
Acetylcholinesterase [1]
  IC50: 0.15 µM
Cholinesterase
  IC50: 0.09 µM
other
  EC50: 50.8 µM

## Cc1c(C)c2c(c(C)c1O)CCC(C)(C(=O)O)O2 (stereo not given) [TROLOX]
HepG2 [2]
  Activity: Non-toxic
Acetylcholinesterase [1]
  IC50: 186 µM
Cholinesterase
  IC50: > 1000 µM
other
  EC50: 16.2 µM

## CC1=C(C)C(=O)C(CCC(C)(O)C(=O)NC(O)CCCCCCCNc2c3c(nc4cc(Cl)ccc24)CCCC3)=C(C)C1=O (stereo not given)
Liver microsome [3]
  Retention_time: 7.1 min

## Cc1c(C)c2c(c(C)c1O)CCC(C)(C(=O)NCCCNc1c3c(nc4ccccc14)CCCC3)O2 (stereo not given)
Acetylcholinesterase [1]
  IC50: 0.26 µM
Cholinesterase
  IC50: 0.08 µM
In vitro
  IC50 at 24 h: 13.2 µM
other
  EC50: 51.3 µM

## Cc1c(C)c2c(c(C)c1O)CCC(C)(C(=O)NCCCCCCCCNc1c3c(nc4cc(Cl)ccc14)CCCC3)O2 (stereo not given)
Acetylcholinesterase [4]
  Ki: 0.0495 µM
[5]
  remaining at 1 h, 1 ug/ml: 58.2%
Acetylcholinesterase [6]
  inhibition: Active
[7]
  remaining at 1 h, 20 ug/ml: 85.5%
Liver microsome [3]
  Retention_time: 7.52 min
[8]
  Papp at 18 h, 100 µM: 5 ×10⁻⁶ cm/s
Acetylcholinesterase [1]
  IC50: 0.08 µM
[9]
  remaining at 1 h, 50 ug/ml: 85.4%
Liver microsome [10]
  Drug metabolism: 3.1%
Cholinesterase
  IC50: 0.54 µM
HepG2 [11]
  Activity: Non-toxic
[12]
  LD50 at 48 h: > 500 mg/kg
other
  EC50: 44.1 µM

## Cc1c(C)c2c(c(C)c1O)CCC(C)(C(=O)NCCCNc1c3c(nc4cc(Cl)ccc14)CCCC3)O2 (stereo not given)
Acetylcholinesterase [1]
  IC50: 0.08 µM
Cholinesterase
  IC50: 0.77 µM
other
  EC50: 48.8 µM

## COc1ccc2nc3c(c(NCCCCNC(=O)C4(C)CCc5c(C)c(O)c(C)c(C)c5O4)c2c1)CCCC3 (stereo not given)
Acetylcholinesterase [1]
  IC50: 7.21 µM
Cholinesterase
  IC50: 0.29 µM
other
  EC50: > 100 µM

## Cc1c(C)c2c(c(C)c1O)CCC(C)(C(=O)NCCCCCCNc1c3c(nc4ccccc14)CCCC3)O2 (stereo not given)
Acetylcholinesterase [1]
  IC50: 0.36 µM
Cholinesterase
  IC50: 0.19 µM
In vitro
  IC50 at 24 h: 2 µM
other
  EC50: 61.8 µM

## Nc1c2c(nc3cc(Cl)ccc13)CCCC2
[12]
  LD50 at 48 h: 7.5 mg/kg
In vitro
  IC50 at 24 h: 7.13 µM
other
  EC50: > 100 µM

## Cc1c(C)c2c(c(C)c1O)CCC(C)(C(=O)NCCCCCCNc1c3c(nc4cc(Cl)ccc14)CCCC3)O2 (stereo not given)
Acetylcholinesterase [1]
  IC50: 0.1 µM
Cholinesterase
  IC50: 0.4 µM
In vitro
  IC50 at 24 h: 0.7 µM
other
  EC50: 48.8 µM

## Cc1c(C)c2c(c(C)c1O)CCC(C)(C(=O)NCCCCCCCNc1c3c(nc4cc(Cl)ccc14)CCCC3)O2 (stereo not given)
Acetylcholinesterase [1]
  IC50: 0.08 µM
Cholinesterase
  IC50: 0.7 µM
HepG2 [11]
  Activity: Non-toxic
other
  EC50: 44.2 µM

## COc1ccc2nc3c(c(NCCCCCCCCNC(=O)C4(C)CCc5c(C)c(O)c(C)c(C)c5O4)c2c1)CCCC3 (stereo not given)
Acetylcholinesterase [1]
  IC50: 3.48 µM
Cholinesterase
  IC50: 1.53 µM
In vitro
  IC50 at 24 h: 0.92 µM
other
  EC50: > 100 µM

## OCCCCCCCCNc1c2c(nc3cc(Cl)ccc13)CCCC2
Liver microsome [3]
  Retention_time: 6.56 min

## COc1ccc2nc3c(c(NCCCCCCCNC(=O)C4(C)CCc5c(C)c(O)c(C)c(C)c5O4)c2c1)CCCC3 (stereo not given)
Acetylcholinesterase [1]
  IC50: 6.72 µM
Cholinesterase
  IC50: 0.7 µM
other
  EC50: 59 µM

## Cc1c(C)c2c(c(C)c1O)CCC(C)(C(=O)NCCNc1c3c(nc4ccccc14)CCCC3)O2 (stereo not given)
[8]
  Papp at 18 h, 100 µM: 4.4 ×10⁻⁶ cm/s
Acetylcholinesterase [1]
  IC50: 6.97 µM
Cholinesterase
  IC50: 0.06 µM
other
  EC50: > 100 µM

## COc1ccc2nc3c(c(NCCCNC(=O)C4(C)CCc5c(C)c(O)c(C)c(C)c5O4)c2c1)CCCC3 (stereo not given)
Acetylcholinesterase [1]
  IC50: 1.54 µM
Cholinesterase
  IC50: 0.62 µM
HepG2 [13]
  Activity: Non-toxic
other
  EC50: > 100 µM

## COc1ccc2nc3c(c(NCCCCCCNC(=O)C4(C)CCc5c(C)c(O)c(C)c(C)c5O4)c2c1)CCCC3 (stereo not given)
Acetylcholinesterase [1]
  IC50: 6.61 µM
Cholinesterase
  IC50: 0.69 µM
other
  EC50: 58.8 µM

## CC1=C(C)C(=O)C(CCC(C)(O)C(=O)NCCCCCCCCNc2c3c(nc4cc(Cl)ccc24)CCCC3)=C(C)C1=O (stereo not given)
Liver microsome [3]
  Retention_time: 7.35 min

## Cc1c(C)c2c(c(C)c1O)CCC(C)(C(=O)NCCCCCNc1c3c(nc4ccccc14)CCCC3)O2 (stereo not given)
Acetylcholinesterase [1]
  IC50: 0.62 µM
Cholinesterase
  IC50: 0.56 µM
In vitro
  IC50 at 24 h: 8.7 µM
other
  EC50: 65.6 µM

## Cc1c(C)c2c(c(C)c1O)CCC(C)(C(=O)NCCCCCNc1c3c(nc4cc(Cl)ccc14)CCCC3)O2 (stereo not given)
Acetylcholinesterase [1]
  IC50: 0.12 µM
Cholinesterase
  IC50: 0.13 µM
other
  EC50: 49.8 µM

## COc1ccc2nc3c(c(NCCNC(=O)C4(C)CCc5c(C)c(O)c(C)c(C)c5O4)c2c1)CCCC3 (stereo not given)
Acetylcholinesterase [1]
  IC50: 4.36 µM
Cholinesterase
  IC50: 1.3 µM
In vitro
  IC50 at 24 h: 4.9 µM
other
  EC50: 95.9 µM

## Cc1c(C)c2c(c(C)c1O)CCC(C)(C(=O)NCCCCCCCNc1c3c(nc4ccccc14)CCCC3)O2 (stereo not given)
Acetylcholinesterase [1]
  IC50: 0.69 µM
Cholinesterase
  IC50: 0.13 µM
other
  EC50: > 100 µM

## COc1ccc2nc3c(c(N)c2c1)CCCC3
In vitro
  IC50 at 24 h: 11.5 µM
other
  EC50: > 100 µM

## O=C(O)CCCCCCCNc1c2c(nc3cc(Cl)ccc13)CCCC2
Liver microsome [3]
  Retention_time: 6.52 min
